Source: ChEMBL document CHEMBL3885881, “DrugMatrix”
Values joined by “and” are separate entries in the source; they are usually repeats but may differ in a detail not shown here. Equal values may be shown once.

Species: Rattus norvegicus
Assay: DrugMatrix - Regimen: Daily Repeat
Assay type: toxicity, organism-based, Sprague-Dawley
Set-up: regimen Daily Repeat, gender Male, age 6-8 weeks
Details: in vivo, ip, route intraperitoneal, vehicle 100 % SALINE; for ABSOLUTE BASOPHIL / ABSOLUTE EOSINOPHIL / ABSOLUTE LYMPHOCYTE / ABSOLUTE MONOCYTE / ABSOLUTE SEGMENTED NEUTROPHIL / BASOPHIL / EOSINOPHIL / ERYTHROCYTE COUNT / HEMATOCRIT / HEMOGLOBIN / LEUKOCYTE COUNT / LYMPHOCYTE / MEAN CORPUSCULAR HEMOGLOBIN / MEAN CORPUSCULAR HEMOGLOBIN CONCENTRATION / MEAN CORPUSCULAR VOLUME / MONOCYTE / NEUTROPHIL / PLATELET COUNT: tissue Blood; for ALANINE AMINOTRANSFERASE / ALBUMIN / ALKALINE PHOSPHATASE / ASPARTATE AMINOTRANSFERASE / BLOOD UREA NITROGEN / CARBON DIOXIDE / CHOLESTEROL / CREATINE PHOSPHOKINASE / CREATININE / GLUCOSE / LACTATE DEHYDROGENASE / LIPASE / PHOSPHORUS / POTASSIUM / SODIUM / TOTAL BILIRUBIN / TOTAL PROTEIN / URIC ACID / CHLORIDE: tissue Plasma
[1] = 0 mg/kg, 120 h, dose level Control, time 5 day
[2] = 0 mg/kg, […], dose level Control, time 14 day
[3] = 0 mg/kg, […], dose level Control, time 28 day
[4] = 40 mg/kg, 120 h, dose level High, time 5 day

**Q.** What does the source list for GENTAMICIN?
**A.** ABSOLUTE BASOPHIL [1]: 32 cells/µL; ABSOLUTE EOSINOPHIL [1]: 110 cells/µL; ABSOLUTE LYMPHOCYTE [1]: 6630 cells/µL; ABSOLUTE MONOCYTE [1]: 140 cells/µL; ABSOLUTE SEGMENTED NEUTROPHIL [1]: 1170 cells/µL; BASOPHIL [1]: 0.38% and 0.35%; EOSINOPHIL [1]: 1.28% and 0.62%; ERYTHROCYTE COUNT [1]: 7.45 x10E6/uL and 7.26 x10E6/uL; HEMATOCRIT [1]: 45.74% and 47.97%; HEMOGLOBIN [1]: 14.72 G/DL and 15.38 G/DL; LEUKOCYTE COUNT [1]: 8.11 x10E3/uL and 8.68 x10E3/uL; LYMPHOCYTE [1]: 81.3% and 86.77%; MEAN CORPUSCULAR HEMOGLOBIN [1]: 19.76 pg and 21.18 pg; MEAN CORPUSCULAR HEMOGLOBIN CONCENTRATION [1]: 32.16 G/DL and 32.05 G/DL; MEAN CORPUSCULAR VOLUME [1]: 61.38 fL and 66.15 fL; MONOCYTE [1]: 1.76% and 1.57%; NEUTROPHIL [1]: 14.9% and 9.53%; PLATELET COUNT [1]: 1322.4 x10E3/uL and 1786 x10E3/uL; ALANINE AMINOTRANSFERASE [1]: 25.8 u/L and 20.5 u/L; ALBUMIN [1]: 3.64 G/DL and 4.35 G/DL; ALKALINE PHOSPHATASE [1]: 300 u/L; ASPARTATE AMINOTRANSFERASE [1]: 81.4 u/L and 86.75 u/L; BLOOD UREA NITROGEN [1]: 14.4 mg/dL and 17 mg/dL; CARBON DIOXIDE [1]: 29 mmol/L; CHOLESTEROL [1]: 69.2 mg/dL and 51.25 mg/dL; CREATINE PHOSPHOKINASE [1]: 303.2 u/L and 384.75 u/L; CREATININE [1]: 0.56 mg/dL and 0.47 mg/dL; GLUCOSE [1]: 125.4 mg/dL and 128.75 mg/dL; LACTATE DEHYDROGENASE [1]: 105.4 u/L and 145 u/L; LIPASE [1]: 22.4 u/L and 13.25 u/L; PHOSPHORUS [1]: 11.8 mg/dL; POTASSIUM [1]: 5.52 MEQ/L and 6.58 MEQ/L; SODIUM [1]: 147 MEQ/L and 151 MEQ/L; TOTAL BILIRUBIN [1]: 0.2 mg/dL and 0.33 mg/dL; TOTAL PROTEIN [1]: 6.1 G/DL and 6.53 G/DL; URIC ACID [1]: 1.06 mg/dL and 1.95 mg/dL; ABSOLUTE BASOPHIL [2]: 130 cells/µL; ABSOLUTE EOSINOPHIL [2]: 140 cells/µL; ABSOLUTE LYMPHOCYTE [2]: 13500 cells/µL; ABSOLUTE MONOCYTE [2]: 400 cells/µL; ABSOLUTE SEGMENTED NEUTROPHIL [2]: 2330 cells/µL; HEMATOCRIT [2]: 45.98%; HEMOGLOBIN [2]: 15.17 G/DL; MEAN CORPUSCULAR VOLUME [2]: 59.4 fL; NEUTROPHIL [2]: 14.14%; ABSOLUTE BASOPHIL [3]: 91 cells/µL; ABSOLUTE EOSINOPHIL [3]: 110 cells/µL; ABSOLUTE LYMPHOCYTE [3]: 9910 cells/µL; ABSOLUTE MONOCYTE [3]: 210 cells/µL; ABSOLUTE SEGMENTED NEUTROPHIL [3]: 1560 cells/µL; BASOPHIL [3]: 0.77%; EOSINOPHIL [3]: 0.92%; ERYTHROCYTE COUNT [3]: 8.21 x10E6/uL; HEMATOCRIT [3]: 47.53%; HEMOGLOBIN [3]: 15.65 G/DL; LEUKOCYTE COUNT [3]: 11.91 x10E3/uL; LYMPHOCYTE [3]: 83.34%; MEAN CORPUSCULAR HEMOGLOBIN [3]: 19.07 pg; MEAN CORPUSCULAR HEMOGLOBIN CONCENTRATION [3]: 32.93 G/DL; MEAN CORPUSCULAR VOLUME [3]: 57.9 fL; MONOCYTE [3]: 1.68%; NEUTROPHIL [3]: 12.97%; PLATELET COUNT [3]: 1323.8 x10E3/uL; ALBUMIN [2]: 3.66 G/DL; CARBON DIOXIDE [2]: 25 mmol/L; CHLORIDE [2]: 107 MEQ/L; CREATINE PHOSPHOKINASE [2]: 410.25 u/L; SODIUM [2]: 149.2 MEQ/L; URIC ACID [2]: 0.94 mg/dL; ALANINE AMINOTRANSFERASE [3]: 30 u/L; ALBUMIN [3]: 3.71 G/DL; ALKALINE PHOSPHATASE [3]: 186.8 u/L; ASPARTATE AMINOTRANSFERASE [3]: 78.2 u/L; BLOOD UREA NITROGEN [3]: 14.2 mg/dL; CHOLESTEROL [3]: 44.9 mg/dL; CREATINE PHOSPHOKINASE [3]: 334.3 u/L; CREATININE [3]: 0.6 mg/dL; GLUCOSE [3]: 147.2 mg/dL; LACTATE DEHYDROGENASE [3]: 123.1 u/L; LIPASE [3]: 9.6 u/L; PHOSPHORUS [3]: 10.01 mg/dL; POTASSIUM [3]: 6.57 MEQ/L; SODIUM [3]: 149.5 MEQ/L; TOTAL BILIRUBIN [3]: 0.21 mg/dL; TOTAL PROTEIN [3]: 6.66 G/DL; URIC ACID [3]: 1.26 mg/dL; ABSOLUTE BASOPHIL [4]: 80 cells/µL; ABSOLUTE EOSINOPHIL [4]: 74 cells/µL; ABSOLUTE LYMPHOCYTE [4]: 8100 cells/µL; ABSOLUTE MONOCYTE [4]: 240 cells/µL; ABSOLUTE SEGMENTED NEUTROPHIL [4]: 1450 cells/µL; BASOPHIL [4]: 0.76% and 0.38%; EOSINOPHIL [4]: 0.78% and 0.9%; ERYTHROCYTE COUNT [4]: 6.83 x10E6/uL and 7.91 x10E6/uL; HEMATOCRIT [4]: 41.68% and 49.95%; HEMOGLOBIN [4]: 15.98 G/DL; LEUKOCYTE COUNT [4]: 10.02 x10E3/uL and 8.78 x10E3/uL; LYMPHOCYTE [4]: 80.04% and 84.55%; MEAN CORPUSCULAR HEMOGLOBIN [4]: 20.3 pg and 20.2 pg; MEAN CORPUSCULAR HEMOGLOBIN CONCENTRATION [4]: 33.3 G/DL and 31.98 G/DL; MEAN CORPUSCULAR VOLUME [4]: 61 fL; MONOCYTE [4]: 2.58% and 2.52%; NEUTROPHIL [4]: 15.12% and 10.23%; PLATELET COUNT [4]: 1275.4 x10E3/uL and 1549.75 x10E3/uL; ALANINE AMINOTRANSFERASE [4]: 28.6 u/L and 25 u/L; ALBUMIN [4]: 3.36 G/DL and 4.35 G/DL; ALKALINE PHOSPHATASE [4]: 214.2 u/L and 307.5 u/L; ASPARTATE AMINOTRANSFERASE [4]: 87.2 u/L and 90.25 u/L; BLOOD UREA NITROGEN [4]: 15 mg/dL and 15.25 mg/dL; CARBON DIOXIDE [4]: 25.75 mmol/L; CHLORIDE [4]: 107.4 MEQ/L; CHOLESTEROL [4]: 60.8 mg/dL and 65.25 mg/dL; CREATINE PHOSPHOKINASE [4]: 313.5 u/L and 416.75 u/L; CREATININE [4]: 0.44 mg/dL and 0.45 mg/dL; GLUCOSE [4]: 128 mg/dL and 118.5 mg/dL; LACTATE DEHYDROGENASE [4]: 133.8 u/L and 153 u/L
